# According to PMC8579695, “The Stringent Response Inhibits 70S Ribosome Formation in Staphylococcus aureus by Impeding GTPase-Ribosome Interactions” (mBio, 2021):
# Like-named read-outs stand apart in the source and are kept apart here.
# Experiments:
# HflX = HflX (Staphylococcus aureus, UniProt Q2FYY9); test: DRaCALA binding of 32P-labeled nucleotides to 6×His-tagged HflX; conditions: mean ± SEM; for Bmax, HflX: Bmax values indicate the fraction bound
# Method: (§1) The RA-GTPases RsgA, Era, RbgA, and HflX can bind to the guanosine nucleotides GTP, GDP, ppGpp, and pppGpp. Our previous work observed higher binding affinities for ppGpp over GTP, pointing toward a difference in binding between 5′ di- or triphosphate nucleotides ([27]). […] Furthermore, these previous experiments were performed using recombinant proteins fused to large MBP tags, which could impact binding affinity determination. To examine the nucleotide binding affinities of these RA-GTPases for GDP in comparison to ppGpp, pppGpp, and GTP, and in the absence of a large tag, we used a differential radial capillary action of ligand assay (DRaCALA) with recombinant RsgA, RbgA, Era, and HflX fused to a smaller 6× His tag (Fig. 1B; see also Fig. S2A to C in the supplemental material) ([36]). In each case, the affinities of 5′ diphosphate-containing GDP and ppGpp were similar in the low μM range and were 2- to 6-fold higher than the affinities of either GTP or pppGpp (Table 1).
# (§2) Supplementary file : FIG S2 Examination of the binding of GDP, ppGpp, GTP, and pppGpp to RA-GTPases by DRaCALA. (A to C) Determination of binding affinities and Kd values for ^32P-labeled nucleotides to purified recombinant 6×His-tagged RsgA (A), Era (B), and HflX (C). Kd values were determined from the binding curves as previously described ([36]). (D to F) DRaCALA binding assay of recombinant RsgA (D), Era (E), and HflX (F) binding to ^32P-labeled GTP, ppGpp, and pppGpp in the presence or absence of 100 μM cold competitors (GTP, GDP, ppGpp, pppGpp, and ATP). All experiments were carried out in triplicate, with error bars representing standard deviations. Download FIG S2, TIF file, 0.9 MB.
# (§3) The synthesis of (p)ppGpp and differential radial capillary action of ligand assay (DRaCALA) binding and competition assays were performed as described previously ([27]), using recombinant, 6×His-tagged protein at the concentrations specified in the figure legends.
# RbgA = RbgA (Staphylococcus aureus, UniProt A0A0H2XK72); test: DRaCALA binding of 32P-labeled nucleotides to 6×His-tagged RbgA; conditions: for Bmax, RbgA: Bmax values indicate the fraction bound
# Text: FIG 1 Nucleotide binding characteristics of RA-GTPases. (A) Schematic representation of the domain structure of Era, RsgA, RbgA, and HflX from S. aureus. The conserved GTPase domain (G domain) is colored in green, and accessory domains are shown. (B) Determination of binding affinities and Kd values for ^32P-labeled GTP, GDP, ppGpp, and pppGpp with purified recombinant 6×His-tagged RbgA using DRaCALA, as previously described ([36]). Each point is the mean average of at least three technical replicates, and error bars indicate standard deviations. (C) Binding assay (DRaCALA) of recombinant RbgA binding to ^32P-labeled GTP, ppGpp, and pppGpp in the presence of an excess of cold competitor (GTP, GDP, ppGpp, pppGpp, or ATP). All experiments were carried out in triplicate, with error bars representing standard deviations.
# as §1, §3
# Era = Era (Staphylococcus aureus, UniProt Q2FGF6); test: DRaCALA binding of 32P-labeled nucleotides to 6×His-tagged Era; conditions: for Bmax, Era: Bmax values indicate the fraction bound
# Method: as §1, §2, §3
# RsgA = RsgA (Staphylococcus aureus, UniProt P67682); test: DRaCALA binding of 32P-labeled nucleotides to 6×His-tagged RsgA; conditions: for Bmax, RsgA: Bmax values indicate the fraction bound
# Method: as §1, §2, §3
# RsgA, sequence (P67682 whole entry): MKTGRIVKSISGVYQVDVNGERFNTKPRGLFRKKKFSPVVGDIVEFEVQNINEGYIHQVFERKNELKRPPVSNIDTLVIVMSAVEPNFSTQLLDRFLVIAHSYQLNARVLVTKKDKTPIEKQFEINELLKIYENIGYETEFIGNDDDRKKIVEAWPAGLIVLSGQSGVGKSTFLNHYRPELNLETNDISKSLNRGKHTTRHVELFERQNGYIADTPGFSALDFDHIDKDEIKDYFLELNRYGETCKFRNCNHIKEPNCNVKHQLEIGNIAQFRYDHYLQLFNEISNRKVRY
# RbgA, sequence (A0A0H2XK72 entry or part of it): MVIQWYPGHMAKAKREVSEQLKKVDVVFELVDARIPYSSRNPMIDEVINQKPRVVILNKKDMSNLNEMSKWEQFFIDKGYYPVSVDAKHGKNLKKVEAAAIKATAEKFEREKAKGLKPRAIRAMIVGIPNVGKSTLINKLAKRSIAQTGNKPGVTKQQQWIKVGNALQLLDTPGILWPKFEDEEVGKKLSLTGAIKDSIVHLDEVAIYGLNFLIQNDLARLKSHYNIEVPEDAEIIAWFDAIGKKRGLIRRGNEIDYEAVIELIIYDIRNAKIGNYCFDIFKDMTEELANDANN
# Era, sequence (Q2FGF6 whole entry): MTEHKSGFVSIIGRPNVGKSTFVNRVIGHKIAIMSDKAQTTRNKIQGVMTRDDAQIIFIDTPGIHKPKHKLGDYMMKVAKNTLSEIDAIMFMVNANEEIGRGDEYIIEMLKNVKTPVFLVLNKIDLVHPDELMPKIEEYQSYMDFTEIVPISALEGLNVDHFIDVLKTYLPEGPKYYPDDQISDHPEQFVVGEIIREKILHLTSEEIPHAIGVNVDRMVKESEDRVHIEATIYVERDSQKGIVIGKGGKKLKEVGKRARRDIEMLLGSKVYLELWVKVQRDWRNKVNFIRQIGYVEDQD
# HflX, sequence (Q2FYY9 entry or part of it): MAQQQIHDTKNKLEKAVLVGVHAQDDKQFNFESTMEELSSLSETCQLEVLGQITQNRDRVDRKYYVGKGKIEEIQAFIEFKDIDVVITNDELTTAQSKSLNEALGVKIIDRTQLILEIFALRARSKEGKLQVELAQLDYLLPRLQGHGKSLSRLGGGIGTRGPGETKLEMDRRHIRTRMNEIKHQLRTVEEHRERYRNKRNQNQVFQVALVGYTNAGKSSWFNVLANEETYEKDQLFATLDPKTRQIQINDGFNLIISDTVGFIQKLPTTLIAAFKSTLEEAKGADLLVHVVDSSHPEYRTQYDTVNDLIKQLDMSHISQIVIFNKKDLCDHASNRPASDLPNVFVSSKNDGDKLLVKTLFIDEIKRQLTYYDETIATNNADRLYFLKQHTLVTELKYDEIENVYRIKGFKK
SMILES,"Kd (HflX; 32P-labeled nucleotide, 6×His-tagged protein, read-out: Kd, HflX)","Bmax, HflX (HflX)","Kd (RbgA; mean ± SEM, 32P-labeled nucleotide, 6×His-tagged protein, read-out: Kd, RbgA)","Bmax, RbgA (RbgA; mean ± SEM)","Kd (Era; mean ± SEM, 32P-labeled nucleotide, 6×His-tagged protein, read-out: Kd, Era)","Bmax, Era (Era; mean ± SEM)","Kd (RsgA; mean ± SEM, 32P-labeled nucleotide, 6×His-tagged protein, read-out: Kd, RsgA)","Bmax, RsgA (RsgA; mean ± SEM)",Kd (RbgA),Kd (Era),Kd (RsgA)
Nc1nc2c(ncn2[C@@H]2O[C@H](COP(=O)(O)OP(=O)(O)O)[C@@H](OP(=O)(O)OP(=O)(O)O)[C@H]2O)c(=O)[nH]1 [ppGpp],3.4 ± 0.4 µM,0.6 ± 0.0,2.9 ± 0.4 µM,0.6 ± 0.0,4.2 ± 0.6 µM,0.4 ± 0.0,2.2 ± 0.2 µM,0.9 ± 0.0,–,–,–
Nc1nc2c(ncn2[C@@H]2O[C@H](COP(=O)(O)OP(=O)(O)OP(=O)(O)O)[C@@H](OP(=O)(O)OP(=O)(O)O)[C@H]2O)c(=O)[nH]1 [pppGpp],–,0.5 ± 0.2,–,0.4 ± 0.0,–,0.2 ± 0.0,–,0.4 ± 0.0,13.8 ± 4 µM,13.9 ± 4.7 µM,10.1 ± 2.2 µM
